Source: PubChem BioAssay AID1963871 (Molecular Pharmacology Branch, DTP, NCI, 2024)

Tested on: KRAS-mutant PDC multicell tumor spheroid viability
Experiment: Anticancer human tumor 521955-158-R2-J5-PDC patient-derived pancreatic carcinoma cell line growth inhibition [KRAS2]
Details: for viability, T/C: stronger effect = lower value
Summary of the method: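 Combination screen of spheroid viability in tumor-cell co-cultures with endothelial (HUVEC) and mesenchymal stem cell stroma. Each agent was tested in half-log dilutions, topping at clinical Cmax or at 10 microM without a known Cmax.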

[1] = curve of first compound, second compound 0.1 µM
[2] = curve of first compound, second compound 0.316 µM
[3] = curve of first compound, second compound 1 µM
[4] = curve of first compound, second compound 3.16 µM
[5] = second compound 0.1 µM, first compound 0.0316 µM
[6] = second compound 0.1 µM, first compound 0.1 µM
[7] = second compound 0.1 µM, first compound 0.316 µM
[8] = second compound 0.1 µM, first compound 1 µM
[9] = second compound 0.1 µM, first compound 3.16 µM
[10] = second compound 0.1 µM, first compound 10 µM
[11] = second compound 0.316 µM, first compound 0.0316 µM
[12] = second compound 0.316 µM, first compound 0.1 µM
[13] = second compound 0.316 µM, first compound 0.316 µM
[14] = second compound 0.316 µM, first compound 1 µM
[15] = second compound 0.316 µM, first compound 3.16 µM
[16] = second compound 0.316 µM, first compound 10 µM
[17] = second compound 1 µM, first compound 0.0316 µM
[18] = second compound 1 µM, first compound 0.1 µM
[19] = second compound 1 µM, first compound 0.316 µM
[20] = second compound 1 µM, first compound 1 µM
[21] = second compound 1 µM, first compound 3.16 µM
[22] = second compound 1 µM, first compound 10 µM
[23] = second compound 3.16 µM, first compound 0.0316 µM
[24] = second compound 3.16 µM, first compound 0.1 µM
[25] = second compound 3.16 µM, first compound 0.316 µM
[26] = second compound 3.16 µM, first compound 1 µM
[27] = second compound 3.16 µM, first compound 3.16 µM
[28] = second compound 3.16 µM, first compound 10 µM
[29] = curve of first compound, second compound 10 µM
[30] = second compound 10 µM, first compound 0.0316 µM
[31] = second compound 10 µM, first compound 0.1 µM
[32] = second compound 10 µM, first compound 0.316 µM
[33] = second compound 10 µM, first compound 1 µM
[34] = second compound 10 µM, first compound 3.16 µM
[35] = second compound 10 µM, first compound 10 µM
[36] = second compound 0.1 µM, first compound 0.01 µM
[37] = second compound 0.316 µM, first compound 0.01 µM
[38] = second compound 1 µM, first compound 0.01 µM
[39] = second compound 3.16 µM, first compound 0.01 µM
[40] = second compound 10 µM, first compound 0.01 µM
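Note: viability read after seven days of drug exposure.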

Cn1nccc1Nc1nccc(-c2cc3c(s2)C(C)(C)N(CCN2CCOCC2)C3=O)n1 + C=CC(=O)N1CCN(c2nc(OCC3CCCN3C)nc3c2CCN(c2cccc4cccc(C)c24)C3)CC1CC#N
IC50 (curve of first compound, second compound 0.0316 µM): 0.657 µM
IC50 [1]: 0.546 µM
IC50 [2]: 0.458 µM
IC50 [3]: 0.17 µM
IC50 [4]: < 0.0316 µM
viability, T/C (second compound 0.0316 µM, first compound 0.0316 µM): 100%
viability, T/C (second compound 0.0316 µM, first compound 0.1 µM): 95.3%
viability, T/C (second compound 0.0316 µM, first compound 0.316 µM): 64.3%
viability, T/C (second compound 0.0316 µM, first compound 1 µM): 40.6%
viability, T/C (second compound 0.0316 µM, first compound 3.16 µM): 29.7%
viability, T/C (second compound 0.0316 µM, first compound 10 µM): 19.1%
viability, T/C [5]: 98.2%
viability, T/C [6]: 76.6%
viability, T/C [7]: 57.1%
viability, T/C [8]: 44.5%
viability, T/C [9]: 23.8%
viability, T/C [10]: 17.1%
viability, T/C [11]: 78.4%
viability, T/C [12]: 81%
viability, T/C [13]: 48.3%
viability, T/C [14]: 41.9%
viability, T/C [15]: 22.1%
viability, T/C [16]: 16.8%
viability, T/C [17]: 75.5%
viability, T/C [18]: 52.1%
viability, T/C [19]: 41.6%
viability, T/C [20]: 38%
viability, T/C [21]: 23.3%
viability, T/C [22]: 17.9%
viability, T/C [23]: 11.5%
viability, T/C [24]: 10.4%
viability, T/C [25]: 6.73%
viability, T/C [26]: 1.86%
viability, T/C [27]: 0.55%
viability, T/C [28]: 0.33%

COC(=O)c1ccc2c(C(=Nc3ccc(N(C)C(=O)CN4CCN(C)CC4)cc3)c3ccccc3)c(O)[nH]c2c1 + COc1cc2nc(C)nc(NC(C)c3cc(N)cc(C(F)(F)F)c3)c2cc1OC1CCOC1
IC50 [1]: 2.01 µM
IC50 [2]: 2.71 µM
IC50 [3]: 1.84 µM
IC50 [4]: 1.78 µM
IC50 [29]: < 0.0316 µM
viability, T/C [5]: 113%
viability, T/C [6]: 118%
viability, T/C [7]: 118%
viability, T/C [8]: 138%
viability, T/C [9]: 3.03%
viability, T/C [10]: 0.16%
viability, T/C [11]: 96.5%
viability, T/C [12]: 105%
viability, T/C [13]: 100%
viability, T/C [14]: 102%
viability, T/C [15]: 42.1%
viability, T/C [16]: 0.17%
viability, T/C [17]: 96.8%
viability, T/C [18]: 90.3%
viability, T/C [19]: 108%
viability, T/C [20]: 102%
viability, T/C [21]: 6.39%
viability, T/C [22]: 0.16%
viability, T/C [23]: 111%
viability, T/C [24]: 94.7%
viability, T/C [25]: 112%
viability, T/C [26]: 99.6%
viability, T/C [27]: 0.72%
viability, T/C [28]: 0.58%
viability, T/C [30]: 17.9%
viability, T/C [31]: 15.5%
viability, T/C [32]: 2.96%
viability, T/C [33]: 0.51%
viability, T/C [34]: 0.17%
viability, T/C [35]: 0.22%

CC1(C)CCC(CN2CCN(c3ccc(C(=O)NS(=O)(=O)c4ccc(NCC5CCOCC5)c([N+](=O)[O-])c4)c(Oc4cnc5[nH]ccc5c4)c3)CC2)=C(c2ccc(Cl)cc2)C1 + COc1cc2nc(C)nc(NC(C)c3cc(N)cc(C(F)(F)F)c3)c2cc1OC1CCOC1
IC50 [1]: 6.34 µM
IC50 [2]: 5.02 µM
IC50 [3]: 3.65 µM
IC50 [4]: 2 µM
IC50 [29]: 0.391 µM
viability, T/C [5]: 74.8%
viability, T/C [6]: 82.6%
viability, T/C [7]: 92.4%
viability, T/C [8]: 93.3%
viability, T/C [9]: 82.9%
viability, T/C [10]: 28.2%
viability, T/C [11]: 74.5%
viability, T/C [12]: 82.8%
viability, T/C [13]: 86%
viability, T/C [14]: 80.5%
viability, T/C [15]: 70.9%
viability, T/C [16]: 18.8%
viability, T/C [17]: 71.9%
viability, T/C [18]: 78.2%
viability, T/C [19]: 82.6%
viability, T/C [20]: 81.3%
viability, T/C [21]: 55.7%
viability, T/C [22]: 10.8%
viability, T/C [23]: 81%
viability, T/C [24]: 82.4%
viability, T/C [25]: 86.1%
viability, T/C [26]: 80%
viability, T/C [27]: 30.2%
viability, T/C [28]: 12.2%
viability, T/C [30]: 55.7%
viability, T/C [31]: 52.6%
viability, T/C [32]: 51.3%
viability, T/C [33]: 36.8%
viability, T/C [34]: 2.22%
viability, T/C [35]: 1.29%

Cn1nccc1Nc1nccc(-c2cc3c(s2)C(C)(C)N(CCN2CCOCC2)C3=O)n1
viability, T/C (compound 0.0316 µM): 91.2% [middle of 5 runs]
viability, T/C (compound 0.1 µM): 86.3% [middle of 5 runs]
viability, T/C (compound 0.316 µM): 60.6% [middle of 5 runs]
viability, T/C (compound 1 µM): 51% [middle of 5 runs]
viability, T/C (compound 3.16 µM): 32.7% [middle of 5 runs]
viability, T/C (compound 10 µM): 22.6% [middle of 5 runs]
IC50 (curve of compound): 902 nM [middle of 5 runs]

CC1COCCN1c1cc(-c2ccnn2C)c2ccnc(-c3ccn[nH]3)c2n1 (configuration not stated) + COc1cc2nc(C)nc(NC(C)c3cc(N)cc(C(F)(F)F)c3)c2cc1OC1CCOC1
IC50 [1]: 0.0214 µM
IC50 [2]: 0.0217 µM
IC50 [3]: 0.0214 µM
IC50 [4]: 0.023 µM
IC50 [29]: < 0.01 µM
viability, T/C [36]: 85.3%
viability, T/C [5]: 31.8%
viability, T/C [6]: 9.64%
viability, T/C [7]: 12.1%
viability, T/C [8]: 16.3%
viability, T/C [9]: 20.9%
viability, T/C [37]: 85%
viability, T/C [11]: 33%
viability, T/C [12]: 8.19%
viability, T/C [13]: 10.6%
viability, T/C [14]: 15.9%
viability, T/C [15]: 22.8%
viability, T/C [38]: 93.4%
viability, T/C [17]: 27.7%
viability, T/C [18]: 10.1%
viability, T/C [19]: 11.7%
viability, T/C [20]: 15.6%
viability, T/C [21]: 21.9%
viability, T/C [39]: 97.4%
viability, T/C [23]: 31.6%
viability, T/C [24]: 7.75%
viability, T/C [25]: 10.1%
viability, T/C [26]: 16.6%
viability, T/C [27]: 23.1%
viability, T/C [40]: 39.6%
viability, T/C [30]: 9.76%
viability, T/C [31]: 4.43%
viability, T/C [32]: 7.6%
viability, T/C [33]: 16%
viability, T/C [34]: 12.9%

Cn1ncnc1[C@H]1c2n[nH]c(=O)c3cc(F)cc(c23)N[C@@H]1c1ccc(F)cc1 + C=CC(=O)N1CCN(c2nc(=O)n(-c3c(C)ccnc3C(C)C)c3nc(-c4c(O)cccc4F)c(F)cc23)C(C)C1
IC50 [1]: > 0.1 µM
IC50 [2]: > 0.1 µM
IC50 [3]: > 0.1 µM
IC50 [4]: > 0.1 µM
IC50 [29]: > 0.1 µM
viability, T/C (second compound 0.1 µM, first compound 0.000316 µM): 104%
viability, T/C (second compound 0.1 µM, first compound 0.001 µM): 106%
viability, T/C (second compound 0.1 µM, first compound 0.00316 µM): 89.6%
viability, T/C [36]: 96.3%
viability, T/C [5]: 87.2%
viability, T/C [6]: 79.3%
viability, T/C (second compound 0.316 µM, first compound 0.000316 µM): 109%
viability, T/C (second compound 0.316 µM, first compound 0.001 µM): 108%
viability, T/C (second compound 0.316 µM, first compound 0.00316 µM): 103%
viability, T/C [37]: 80.6%
viability, T/C [11]: 82.6%
viability, T/C [12]: 86.3%
viability, T/C (second compound 1 µM, first compound 0.000316 µM): 103%
viability, T/C (second compound 1 µM, first compound 0.001 µM): 107%
viability, T/C (second compound 1 µM, first compound 0.00316 µM): 96.6%
viability, T/C [38]: 85.9%
viability, T/C [17]: 83.3%
viability, T/C [18]: 68.2%
viability, T/C (second compound 3.16 µM, first compound 0.000316 µM): 95.5%
viability, T/C (second compound 3.16 µM, first compound 0.001 µM): 89.8%
viability, T/C (second compound 3.16 µM, first compound 0.00316 µM): 97.7%
viability, T/C [39]: 75.2%
viability, T/C [23]: 66.4%
viability, T/C [24]: 61.9%
viability, T/C (second compound 10 µM, first compound 0.000316 µM): 63.9%
viability, T/C (second compound 10 µM, first compound 0.001 µM): 67.8%
viability, T/C (second compound 10 µM, first compound 0.00316 µM): 60.9%
viability, T/C [40]: 59.6%
viability, T/C [30]: 59.8%
viability, T/C [31]: 57.7%
